Read-outs that look alike come from different tables or passages of the source.
How the values were obtained:
[1] = test system: anaphylactoid dextran reaction in the rat paw; test: Dextran edema test (anaphylactoid dextran reaction, paw swelling); format: in vivo; conditions: for ED35: 0.5 h, rat, graphic extrapolation; for % Inhibition of swelling: rat paw, dextran, dose of 100 mgm/kg (p.o.)
Source text: The antiallergic activity of the compounds of the present invention was ascertained and compared to that of structurally related known compounds by the anaphylactic dextran reaction method, where
Dextran induces in the rat a de-granulation of mast cells and thus the release of mediator substances such as histamine and serotonin, with consequent edema formation. The reaction manifests itself in a manner similar to anaphylaxis [see Morrison et al., J.exp.Med. 103, 399 (1956)].
Fasted male laboratory rats (Chbb:Thom.SPF) having a body weight of 120-180 gm were used as the test animals; they were initially kept in wire cages, and after provocation of the reaction on chaff. The allergic reaction was released by subplantar injection into the right hind paw of 100 μgm of dextran (mol. wt. 60,000) in 0.1 ml of physiological sodium chloride solution. The degree of inflammatory swelling was determined by dorso-plantar measurement of the thickness of the paw [see Doepfner et al., Int. Arch. Allergy 12, 89 (1958)] in 1/100 mm; swelling was defined as the difference between the paw thickness 30 minutes after the dextran injection and the paw thickness before the dextran injection. For the dextran injection and the paw thickness measurements the animal was placed under light general anesthesia with ether (etherrausch).
The test compound was administered shortly before release of the allergic reaction in sodium chloride solution i.v. (0.5 ml/100 gm body weight), or 10 minutes before in 1% tylose 2000 p.o. (1 ml/100 gm body weight). Control animals received only the vehicle.
From the raw data thus obtained the percentage of swelling inhibition was calculated from the average paw swelling in the treated animals (T) and in the control animals (K) in accordance with the formula [formula] By graphic extrapolation the dose of test compound was determined which produced a 35% reduction of the swelling (ED35). For graphic representation of percentage inhibition values the standard error (sx --) was determined according to Fenner, Naturwissenschaften 19, 310 (1931).
For the anaphylactoid dextran reaction in the rat paw the following values were obtained at a dose of 100 mgm/kg: […]

[2] = Absorption: quotient ED35 p.o./ED35 i.v. from the dextran edema test; conditions: in vivo; rat; the smaller the quotient, the better the absorption
Source text: For the efficacy of a pharmaceutical which is to be administered perorally, the absorption is of particular advantage. Conclusions regarding the absorption can be drawn from a comparison of the ED35 --values p.o. and i.v.; the smaller the quotient ED35 p.o./ED35 i.v., the better the absorption.

[3] = iv, i.v., shortly before dextran, sodium chloride solution, read-out: ED35 i.v. (dose producing 35% reduction of the swelling)
[4] = po, p.o., 10 minutes before dextran, 1% tylose, read-out: ED35 p.o. (dose producing 35% reduction of the swelling)

Structure (SMILES) | ED35 [1, 3] | ED35 [1, 4] | ED35 p.o./i.v. ratio (absorption) [2] | % Inhibition of swelling [1]
O=C(O)c1ccc2nc3ccccn3c(=O)c2c1 [A, 11-Oxo-11H-pyrido[2,1-b]quinazoline-2-carboxylic acid] | 2.1 mg/kg | 4 mg/kg | 1.9 | –
O=C(O)c1ccc2nc3ccccc3c(=O)n2c1 [E, 11-Oxo-11H-pyrido[2,1-b]-quinazoline-8-carboxylic acid] | 1.1 mg/kg | 4.4 mg/kg | 4 | –
O=C(O)c1cccc2c(=O)n3ccccc3nc12 [C, 11-Oxo-11H-pyrido[2,1-b]quinazoline-4-carboxylic acid] | – | – | – | 10%
O=C(O)c1cccc2nc3ccccn3c(=O)c12 [B, 11-Oxo-11H-pyrido[2,1-b]quinazoline-1-carboxylic acid] | – | – | – | 0%
O=C(O)c1ccn2c(=O)c3ccccc3nc2c1 [D, 11-Oxo-11H-pyrido[2,1-b]quinazoline-7-carboxylic acid] | – | – | – | 38%
